Results from the NIST ThermoML archive (doi:10.1016/j.jct.2004.07.031).
“And” between values parts separate entries of the source, which are not always exact repeats. Identical values can stand only once.

Assay: molar heat capacity at constant pressure
Settings: 101.33 kPa, Crystal, PPMS instrument (Quantum Design)

O=P([O-])([O-])[O-].[La+3] [lanthanum orthophosphate]
Settings	molar heat capacity at constant pressure
9.994 K	0.1666 J/K/mol
10 K	0.1669 J/K/mol
10.01 K	0.1671 J/K/mol
10.19 K	0.1769 J/K/mol
10.2 K	0.1776 J/K/mol and 0.1771 J/K/mol
10.21 K	0.1778 J/K/mol
11.18 K	0.2376 J/K/mol
12.19 K	0.3139 J/K/mol
13.19 K	0.4068 J/K/mol
14.19 K	0.5187 J/K/mol
15.2 K	0.6528 J/K/mol
16.21 K	0.8094 J/K/mol
17.22 K	0.9882 J/K/mol
18.24 K	1.192 J/K/mol
19.25 K	1.422 J/K/mol
20.24 K	1.669 J/K/mol
21.28 K	1.955 J/K/mol
22.27 K	2.25 J/K/mol
23.28 K	2.587 J/K/mol
24.29 K	2.937 J/K/mol
25.31 K	3.319 J/K/mol
26.33 K	3.721 J/K/mol
27.36 K	4.152 J/K/mol
28.34 K	4.576 J/K/mol
29.38 K	5.046 J/K/mol
30.37 K	5.505 J/K/mol
31.4 K	6.006 J/K/mol
32.4 K	6.51 J/K/mol
33.41 K	7.04 J/K/mol
34.43 K	7.567 J/K/mol
35.43 K	8.121 J/K/mol
36.45 K	8.686 J/K/mol
37.45 K	9.258 J/K/mol
38.41 K	9.809 J/K/mol
38.46 K	9.827 J/K/mol
39.48 K	10.43 J/K/mol
40.48 K	11.02 J/K/mol
40.49 K	11.03 J/K/mol
42.49 K	12.25 J/K/mol
44.51 K	13.49 J/K/mol
46.53 K	14.76 J/K/mol
48.55 K	16.05 J/K/mol
50.57 K	17.36 J/K/mol
52.59 K	18.66 J/K/mol
54.6 K	19.95 J/K/mol
56.62 K	21.25 J/K/mol
58.64 K	22.56 J/K/mol
60.66 K	23.86 J/K/mol
62.68 K	25.14 J/K/mol
64.7 K	26.41 J/K/mol
66.72 K	27.64 J/K/mol
68.74 K	28.87 J/K/mol
70.74 K	30.08 J/K/mol
72.76 K	31.29 J/K/mol
74.78 K	32.47 J/K/mol
75.85 K	33.08 J/K/mol
76.8 K	33.62 J/K/mol
78.81 K	34.78 J/K/mol
80.81 K	35.87 J/K/mol
80.84 K	35.88 J/K/mol
85.86 K	38.64 J/K/mol
90.91 K	41.31 J/K/mol
95.96 K	43.8 J/K/mol
101 K	46.3 J/K/mol
106 K	48.66 J/K/mol
111.1 K	50.92 J/K/mol
116.1 K	53.11 J/K/mol
121.2 K	55.16 J/K/mol
126.2 K	57.26 J/K/mol
131.3 K	59.2 J/K/mol
136.3 K	61.11 J/K/mol
141.4 K	62.97 J/K/mol
146.4 K	64.73 J/K/mol
151.4 K	66.44 J/K/mol
156.5 K	68.1 J/K/mol
161.5 K	69.61 J/K/mol
166.5 K	71.14 J/K/mol
171.6 K	72.74 J/K/mol
176.6 K	74.33 J/K/mol
181.6 K	75.68 J/K/mol
186.7 K	77.05 J/K/mol
191.7 K	78.48 J/K/mol
196.7 K	79.89 J/K/mol
201.8 K	81.31 J/K/mol
206.8 K	82.59 J/K/mol
211.8 K	83.86 J/K/mol
216.9 K	85.21 J/K/mol
221.9 K	86.36 J/K/mol
226.9 K	87.35 J/K/mol
231.9 K	88.39 J/K/mol
237 K	89.46 J/K/mol
242 K	90.5 J/K/mol
247 K	91.49 J/K/mol
252.1 K	92.36 J/K/mol
257.1 K	93.28 J/K/mol
262.1 K	94.21 J/K/mol
267.1 K	95.29 J/K/mol
272.1 K	96.19 J/K/mol
277.1 K	97.31 J/K/mol
282.2 K	98.39 J/K/mol and 98.37 J/K/mol
287.2 K	99.41 J/K/mol
287.3 K	99.33 J/K/mol
292.2 K	100.36 J/K/mol
292.3 K	100.2 J/K/mol
297.3 K	100.95 J/K/mol
302.26 K	101.79 J/K/mol
302.33 K	101.79 J/K/mol
302.35 K	101.81 J/K/mol
307.29 K	102.41 J/K/mol
307.35 K	102.45 J/K/mol
307.37 K	102.44 J/K/mol
312.31 K	103.05 J/K/mol
312.37 K	102.95 J/K/mol
312.39 K	103 J/K/mol
317.33 K	103.53 J/K/mol
317.4 K	103.64 J/K/mol
317.42 K	103.68 J/K/mol
322.35 K	104.24 J/K/mol
322.44 K	104.25 J/K/mol
322.45 K	104.34 J/K/mol
327.36 K	105.12 J/K/mol
327.45 K	105.03 J/K/mol
327.48 K	104.97 J/K/mol
332.38 K	105.69 J/K/mol
332.46 K	105.73 J/K/mol
332.48 K	105.57 J/K/mol
337.4 K	106 J/K/mol
337.5 K	106.2 J/K/mol and 106.19 J/K/mol
342.43 K	106.41 J/K/mol
342.53 K	106.46 J/K/mol
342.55 K	106.5 J/K/mol
347.11 K	107.02 J/K/mol
347.2 K	106.86 J/K/mol
347.23 K	106.97 J/K/mol
351.79 K	107.32 J/K/mol
351.86 K	107.38 J/K/mol and 107.33 J/K/mol
356.73 K	107.65 J/K/mol
356.79 K	107.89 J/K/mol
356.81 K	107.7 J/K/mol
361.73 K	108.18 J/K/mol
361.79 K	108.22 J/K/mol
361.8 K	108.28 J/K/mol
366.74 K	108.45 J/K/mol
366.81 K	108.25 J/K/mol and 108.64 J/K/mol
371.74 K	108.81 J/K/mol
371.8 K	108.77 J/K/mol
371.82 K	108.81 J/K/mol
376.74 K	109.11 J/K/mol
376.8 K	109 J/K/mol
376.82 K	108.98 J/K/mol
381.74 K	109.41 J/K/mol
381.81 K	109.29 J/K/mol
